Results reported in PubChem BioAssay (NCI).
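Exposure lasted 48 hours, with cells grown in 96-well plates and compounds tested at five concentrations. TGI is the concentration that stops growth completely.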

Key:
Experiment in all cases: growth of human tumour cells (NCI), 48 h
M14 melanoma = tested on: M14 melanoma
UO-31 renal = tested on: UO-31 renal
HOP-62 NSCLC = tested on: HOP-62 NSCLC
K-562 leukemia = tested on: K-562 leukemia
SW-620 colon = tested on: SW-620 colon
RPMI-8226 leukemia = tested on: RPMI-8226 leukemia
LOX IMVI melanoma = tested on: LOX IMVI melanoma
SF-268 CNS = tested on: SF-268 CNS
SK-OV-3 ovarian = tested on: SK-OV-3 ovarian
TK-10 renal = tested on: TK-10 renal
786-0 renal = tested on: 786-0 renal
SNB-19 CNS = tested on: SNB-19 CNS
SF-539 CNS = tested on: SF-539 CNS
SR leukemia = tested on: SR leukemia
HCT-116 colon = tested on: HCT-116 colon
COLO 205 colon = tested on: COLO 205 colon
MALME-3M melanoma = tested on: MALME-3M melanoma
MDA-MB-435 = tested on: MDA-MB-435
NCI/ADR-RES ovarian = tested on: NCI/ADR-RES ovarian
MDA-N = tested on: MDA-N
EKVX NSCLC = tested on: EKVX NSCLC
OVCAR-4 ovarian = tested on: OVCAR-4 ovarian
UACC-257 melanoma = tested on: UACC-257 melanoma
U251 CNS = tested on: U251 CNS
HOP-92 NSCLC = tested on: HOP-92 NSCLC
DU-145 prostate = tested on: DU-145 prostate
NCI-H23 lung = tested on: NCI-H23 lung
CCRF-CEM leukemia = tested on: CCRF-CEM leukemia
PC-3 prostate = tested on: PC-3 prostate
A549 NSCLC = tested on: A549 NSCLC
OVCAR-3 ovarian = tested on: OVCAR-3 ovarian
SK-MEL-5 melanoma = tested on: SK-MEL-5 melanoma
ACHN renal = tested on: ACHN renal
HT29 colon = tested on: HT29 colon
HCT-15 colon = tested on: HCT-15 colon
NCI-H226 lung = tested on: NCI-H226 lung
RXF 393 renal = tested on: RXF 393 renal
KM12 colon = tested on: KM12 colon
OVCAR-8 ovarian = tested on: OVCAR-8 ovarian
OVCAR-5 ovarian = tested on: OVCAR-5 ovarian
IGROV1 ovarian = tested on: IGROV1 ovarian
NCI-H460 lung = tested on: NCI-H460 lung
CAKI-1 renal = tested on: CAKI-1 renal
SK-MEL-28 melanoma = tested on: SK-MEL-28 melanoma
HCC-2998 colon = tested on: HCC-2998 colon
MDA-MB-231 breast = tested on: MDA-MB-231 breast
MCF7 breast = tested on: MCF7 breast
SK-MEL-2 melanoma = tested on: SK-MEL-2 melanoma
HS 578T breast = tested on: HS 578T breast
BT-549 breast = tested on: BT-549 breast
T-47D breast = tested on: T-47D breast
MOLT-4 leukemia = tested on: MOLT-4 leukemia
SN12C renal = tested on: SN12C renal
A498 renal = tested on: A498 renal
NCI-H522 lung = tested on: NCI-H522 lung
UACC-62 melanoma = tested on: UACC-62 melanoma
SNB-75 CNS = tested on: SNB-75 CNS
SF-295 CNS = tested on: SF-295 CNS
HL-60(TB) leukemia = tested on: HL-60(TB) leukemia

Measured: TGI

C[C@@H]1[C@@H](C)C(c2ccccc2)O[Si]1(C(C)(C)C)C(C)(C)C (some centres not stated)
30.6 µM: KM12 colon
30.2 µM: SF-295 CNS
29.9 µM: TK-10 renal | SNB-75 CNS
63.6 µM: K-562 leukemia
33.8 µM: OVCAR-8 ovarian
31.6 µM: DU-145 prostate
> 66.7 µM: SK-MEL-28 melanoma
33.9 µM: MOLT-4 leukemia | A498 renal
34.9 µM: SW-620 colon
29.3 µM: SR leukemia | SK-MEL-2 melanoma
30.9 µM: LOX IMVI melanoma
28.8 µM: HCT-116 colon
37.2 µM: T-47D breast
> 55.8 µM: HCC-2998 colon
40.9 µM: NCI-H226 lung
50.3 µM: RPMI-8226 leukemia
42.2 µM: M14 melanoma
61.2 µM: SF-268 CNS
57.1 µM: BT-549 breast
48.4 µM: MDA-N
76.3 µM: MDA-MB-435
33 µM: NCI/ADR-RES ovarian | CAKI-1 renal
31.9 µM: MCF7 breast
> 69.3 µM: SK-OV-3 ovarian
30.1 µM: OVCAR-3 ovarian
28.7 µM: NCI-H522 lung
29.4 µM: 786-0 renal
32.2 µM: NCI-H460 lung
30.3 µM: COLO 205 colon | NCI-H23 lung | A549 NSCLC
31.3 µM: MDA-MB-231 breast | SN12C renal
> 86.1 µM: OVCAR-4 ovarian
46.2 µM: CCRF-CEM leukemia
> 55.3 µM: HCT-15 colon
31.4 µM: HOP-62 NSCLC | OVCAR-5 ovarian
30.7 µM: SF-539 CNS | U251 CNS
33.1 µM: PC-3 prostate
46.3 µM: UACC-62 melanoma
37 µM: MALME-3M melanoma
42.6 µM: HS 578T breast
37.5 µM: UACC-257 melanoma
18.3 µM: SNB-19 CNS
38.8 µM: HOP-92 NSCLC
31.5 µM: SK-MEL-5 melanoma | ACHN renal
33.4 µM: EKVX NSCLC
not listed: HL-60(TB) leukemia
31 µM: all other assays above

O=C1COc2cc(N3CCN(c4cccc(C(F)(F)F)c4)CC3)ccc2N1
not listed: MALME-3M melanoma | RXF 393 renal | A498 renal
> 100 µM: all other assays above

COC(=O)c1ccccc1C1CN=NC12Cc1c(ccc3c1CCC3)C2=O (configuration not stated)
49.5 µM: MDA-N
58.6 µM: SK-MEL-5 melanoma
43.7 µM: NCI-H522 lung
86 µM: RPMI-8226 leukemia
60.4 µM: LOX IMVI melanoma
56.2 µM: MDA-MB-435
59.3 µM: HL-60(TB) leukemia
95.1 µM: UACC-257 melanoma
not listed: A498 renal
> 100 µM: all other assays above
